Reference: the supplement of paper PMC10307832

What was measured:
Experiment in all cases: relative viability (nuclei count vs DMSO), 5 days (fraction); higher = more cells survive
[1] = system: LCLC-97TM1
How it was run: (§1)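 Each reported value is a median over duplicate plates. It expresses relative viability: treated-well nuclei count divided by vehicle-well nuclei count. Lung cancer cell lines in 1536-well plates were dosed by pin tool a day after seeding, alone with one drug or with a fixed anchor-drug dose plus five library-drug doses (not always all listed) in √10 steps, and nuclei were counted after 5 days.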

[2] = system: HARA
How it was run: as §1

[3] = system: EMC-BAC-2
How it was run: as §1

[4] = system: NCI-H1915
How it was run: as §1

[5] = system: PC-3 [JPC-3]
How it was run: as §1

[6] = system: NCI-H23
How it was run: as §1

[7] = system: NCI-H1437
How it was run: as §1

[8] = system: NCI-H322M
How it was run: as §1

[9] = system: NCI-H1793
How it was run: as §1

[10] = system: HCC-827
How it was run: as §1

[11] = system: EKVX
How it was run: as §1

[12] = system: HCC-15
How it was run: as §1

[13] = system: NCI-H2126
How it was run: as §1

[14] = system: NCI-H1944
How it was run: as §1

[15] = system: NCI-H441
How it was run: as §1

[16] = system: NCI-H661
How it was run: as §1

[17] = system: LU99A
How it was run: as §1

[18] = system: LC-2-ad
How it was run: as §1

[19] = system: SK-LU-1
How it was run: as §1

[20] = system: H3255
How it was run: as §1

[21] = system: NCI-H460
How it was run: as §1

[22] = system: ChaGo-K-1
How it was run: as §1

**Q.** Which results are given for O=C(O)CCCCC(CCSCc1ccccc1)SCc1ccccc1 (centres undefined) [CPI-613] + O=C(CCCCCCC(=O)Nc1ccccc1)NO [Vorinostat] (partner 1 µM)?
**A.** relative viability ([1]; first compound 5 µM): 0.479; relative viability ([1]; first compound 15.81 µM): 0.492; relative viability ([1]; first compound 50 µM): 0.769; relative viability ([1]; first compound 158.11 µM): 0.331; relative viability ([1]; first compound 500 µM): 0.0868; relative viability ([2]; first compound 5 µM): 0.479; relative viability ([2]; first compound 15.81 µM): 0.529; relative viability ([2]; first compound 50 µM): 0.506; relative viability ([2]; first compound 158.11 µM): 0.0931; relative viability ([2]; first compound 500 µM): 0.024; relative viability ([3]; first compound 5 µM): 0.499; relative viability ([3]; first compound 15.81 µM): 0.339; relative viability ([3]; first compound 50 µM): 0.469; relative viability ([3]; first compound 158.11 µM): 0.356; relative viability ([3]; first compound 500 µM): 0.0895; relative viability ([4]; first compound 5 µM): 0.502; relative viability ([4]; first compound 15.81 µM): 0.54; relative viability ([4]; first compound 50 µM): 0.488; relative viability ([4]; first compound 158.11 µM): 0.467; relative viability ([4]; first compound 500 µM): 0.0403; relative viability ([5]; first compound 5 µM): 0.83; relative viability ([5]; first compound 50 µM): 0.738; relative viability ([5]; first compound 158.11 µM): 0.623; relative viability ([5]; first compound 500 µM): 0.389; relative viability ([6]; first compound 5 µM): 0.612; relative viability ([6]; first compound 15.81 µM): 0.586; relative viability ([6]; first compound 50 µM): 0.591; relative viability ([6]; first compound 158.11 µM): 0.168; relative viability ([6]; first compound 500 µM): 0.0015; relative viability ([7]; first compound 5 µM): 0.803; relative viability ([7]; first compound 15.81 µM): 0.637; relative viability ([7]; first compound 50 µM): 0.689; relative viability ([7]; first compound 158.11 µM): 0.093; relative viability ([7]; first compound 500 µM): 0.0541; relative viability ([8]; first compound 5 µM): 0.809; relative viability ([8]; first compound 15.81 µM): 0.722; relative viability ([8]; first compound 50 µM): 0.777; relative viability ([8]; first compound 158.11 µM): 0.703; relative viability ([8]; first compound 500 µM): 0.161; relative viability ([9]; first compound 5 µM): 0.781; relative viability ([9]; first compound 15.81 µM): 0.559; relative viability ([9]; first compound 50 µM): 0.754; relative viability ([9]; first compound 158.11 µM): 0.424; relative viability ([9]; first compound 500 µM): 0.0086; relative viability ([10]; first compound 5 µM): 0.769; relative viability ([10]; first compound 15.81 µM): 0.703; relative viability ([10]; first compound 50 µM): 0.773; relative viability ([10]; first compound 158.11 µM): 0.497; relative viability ([10]; first compound 500 µM): 0.656; relative viability ([11]; first compound 5 µM): 0.695; relative viability ([11]; first compound 15.81 µM): 0.668; relative viability ([11]; first compound 50 µM): 0.637; relative viability ([11]; first compound 158.11 µM): 0.258; relative viability ([11]; first compound 500 µM): 0.429; relative viability ([12]; first compound 5 µM): 0.801; relative viability ([12]; first compound 15.81 µM): 0.774; relative viability ([12]; first compound 50 µM): 0.779; relative viability ([12]; first compound 158.11 µM): 0.181; relative viability ([12]; first compound 500 µM): 0.0657; relative viability ([13]; first compound 5 µM): 0.743; relative viability ([13]; first compound 15.81 µM): 0.68; relative viability ([13]; first compound 50 µM): 0.831; relative viability ([13]; first compound 158.11 µM): 0.342; relative viability ([13]; first compound 500 µM): 0.179; relative viability ([14]; first compound 5 µM): 0.572; relative viability ([14]; first compound 15.81 µM): 0.574; relative viability ([14]; first compound 50 µM): 0.496; relative viability ([14]; first compound 158.11 µM): 0.322; relative viability ([14]; first compound 500 µM): 0.273; relative viability ([15]; first compound 5 µM): 0.656; relative viability ([15]; first compound 15.81 µM): 0.789; relative viability ([15]; first compound 50 µM): 0.717; relative viability ([15]; first compound 158.11 µM): 0.437; relative viability ([15]; first compound 500 µM): 0.0026; relative viability ([16]; first compound 5 µM): 0.702; relative viability ([16]; first compound 15.81 µM): 0.702; relative viability ([16]; first compound 50 µM): 0.802; relative viability ([16]; first compound 158.11 µM): 0.423; relative viability ([16]; first compound 500 µM): 0.147; relative viability ([17]; first compound 5 µM): 0.474; relative viability ([17]; first compound 15.81 µM): 0.408; relative viability ([17]; first compound 50 µM): 0.466; relative viability ([17]; first compound 158.11 µM): 0.394; relative viability ([17]; first compound 500 µM): 0.223; relative viability ([18]; first compound 5 µM): 0.624; relative viability ([18]; first compound 15.81 µM): 0.631; relative viability ([18]; first compound 50 µM): 0.594; relative viability ([18]; first compound 158.11 µM): 0.0484; relative viability ([18]; first compound 500 µM): 0.0025; relative viability ([19]; first compound 5 µM): 0.773; relative viability ([19]; first compound 15.81 µM): 0.65; relative viability ([19]; first compound 50 µM): 0.648; relative viability ([19]; first compound 158.11 µM): 0.206; relative viability ([19]; first compound 500 µM): 0.11; relative viability ([20]; first compound 5 µM): 0.765; relative viability ([20]; first compound 15.81 µM): 0.796; relative viability ([20]; first compound 50 µM): 0.639; relative viability ([20]; first compound 158.11 µM): 0.821; relative viability ([20]; first compound 500 µM): 0.716; relative viability ([21]; first compound 5 µM): 0.698; relative viability ([21]; first compound 15.81 µM): 0.553; relative viability ([21]; first compound 50 µM): 0.718; relative viability ([21]; first compound 158.11 µM): 0.0356; relative viability ([21]; first compound 500 µM): 0.008; relative viability ([22]; first compound 5 µM): 0.737; relative viability ([22]; first compound 15.81 µM): 0.685; relative viability ([22]; first compound 50 µM): 0.744; relative viability ([22]; first compound 158.11 µM): 0.518; relative viability ([22]; first compound 500 µM): 0.301
